# Experimental data: patent US20230192617A1, “AZABICYCLIC(THIO)AMIDES AS FUNGICIDAL COMPOUNDS” (Bayer CropScience Aktiengesellschaft, priority 2020, published 2023)
# Tests used:
# [1] = Measurement of Log P values by HPLC on reversed phase columns (EEC directive 79/831 Annex V.A8); format: physicochemical; settings: reversed phase HPLC column, method [a]: LC-UV, acidic range, 0.1% formic acid in water and acetonitrile as eluent
# Method: A-1.1. Measurement of Log P Values
# Measurement of Log P values as provided herein was performed according to EEC directive 79/831 Annex V.A8 by HPLC (High Performance Liquid Chromatography) on reversed phase columns with the following methods:
# ^[a] Log P value is determined by measurement of LC-UV, in an acidic range, with 0.1% formic acid in water and acetonitrile as eluent (linear gradient from 10% acetonitrile to 95% acetonitrile).
# ^[b] Log P value is determined by measurement of LC-UV, in a neutral range, with 0.001 molar ammonium acetate solution in water and acetonitrile as eluent (linear gradient from 10% acetonitrile to 95% acetonitrile).
# ^[c] Log P value is determined by measurement of LC-UV, in an acidic range, with 0.1% phosphoric acid and acetonitrile as eluent (linear gradient from 10% acetonitrile to 95% acetonitrile).
# If more than one Log P value is available within the same method, all the values are given and separated by “+”. […]
# Alternaria alternata = Alternaria alternata in vitro cell test; format: cell-based; settings: 120 h, 20 ppm of active ingredient, liquid culture, 5 days incubation, spectrometric measurement of mycelium growth, read-out: efficacy (inhibition of fungal growth)
# Method: (§1) B-6. Alternaria alternata In Vitro Cell Test [table] Fungicides were solubilized in DMSO and the solution used to prepare the required range of concentrations. The final concentration of DMSO used in the assay was ≤1%. A spore suspension of A. alternata was prepared and diluted to the desired spore density. Fungicides were evaluated for their ability to inhibit spore germination and mycelium growth in liquid culture assay. The compounds were added in the desired concentration to the culture medium with spores. After 5 days incubation, fungi-toxicity of compounds was determined by spectrometric measurement of mycelium growth. Inhibition of fungal growth was determined by comparing the absorbance values in wells containing the fungicides with the absorbance in control wells without fungicides.
# [2] = system: Colletotrichum lindemuthianum; assay: B-8. Colletotrichum lindemuthianum in vitro cell test; format: cell-based; settings: 144 h, 20 ppm of active ingredient, 6 days incubation, liquid culture, absorbance, read-out: efficacy (inhibition of fungal growth)
# Method: as §1, with “B-8. Colletotrichum lindemuthianum In” for “B-6. Alternaria alternata In”, “of C. lindemuthianum” for “of A. alternata”, “inhibit spores” for “inhibit spore”, “After 6” for “After 5”
# Pyrenophora teres = assay: B-10. Pyrenophora teres in vitro cell test; format: cell-based; settings: 144 h, 20 ppm of active ingredient, 6 days incubation, liquid culture, absorbance, read-out: efficacy (inhibition of fungal growth)
# Method: as §1, with “B-10. Pyrenophora teres” for “B-6. Alternaria alternata”, “P. teres” for “A. alternata”, “6” for “5”
# Botrytis cinerea [3] = assay: B-11. Botrytis cinerea in vitro cell test; format: cell-based; settings: 144 h, 20 ppm of active ingredient, 6 days incubation, liquid culture, absorbance, read-out: efficacy (inhibition of fungal growth)
# Method: as §1, with “B-11. Botrytis cinerea” for “B-6. Alternaria alternata”, “B. cinerea” for “A. alternata”, “6” for “5”
# Alternaria brassicae = assay: In vivo preventive test on Alternaria brassicae (leaf spot on radish or cabbage); settings: 500 ppm of active ingredient, preventive spray on radish or cabbage, evaluated 3 to 4 days after inoculation, read-out: efficacy
# Method: B-1. In Vivo Preventive Test on Alternaria brassicae (Leaf Spot on Radish or Cabbage) [table] The active ingredients were made soluble and homogenized in a mixture of Dimethyl sulfoxide/Acetone/Tween® 80 and then diluted in water to the desired concentration. The young plants of radish or cabbage were treated by spraying the active ingredient prepared as described above. Control plants were treated only with an aqueous solution of Acetone/Dimethyl sulfoxide/Tween® 80. After 24 hours, the plants were contaminated by spraying the leaves with an aqueous suspension of Alternaria brassicae spores. The contaminated radish or cabbage plants were incubated for 3 to 4 days at 20° C. and at 100% relative humidity.
# Botrytis cinerea [4] = assay: In vivo preventive test on Botrytis cinerea (grey mould); settings: 500 ppm of active ingredient, preventive spray on gherkin or cabbage, evaluated 4 to 5 days after inoculation, read-out: efficacy
# Method: B-2. In Vivo Preventive Test on Botrytis cinerea (Grey Mould) [table] The active ingredients were made soluble and homogenized in a mixture of Dimethyl sulfoxide/Acetone/Tween® 80 and then diluted in water to the desired concentration. The young plants of gherkin or cabbage were treated by spraying the active ingredient prepared as described above. Control plants were treated only with an aqueous solution of Acetone/Dimethyl sulfoxide/Tween® 80. After 24 hours, the plants were contaminated by spraying the leaves with an aqueous suspension of Botrytis cinerea spores. The contaminated gherkin plants were incubated for 4 to 5 days at 17° C. and at 90% relative humidity. The contaminated cabbage plants were incubated for 4 to 5 days at 20° C. and at 100% relative humidity.
SMILES,chromatographic logP [1],inhibition at 20 ppm (Alternaria alternata) [%],inhibition at 20 ppm [2] [%],inhibition at 20 ppm (Pyrenophora teres) [%],inhibition at 20 ppm (Botrytis cinerea [3]) [%],pest or weed control at 500 ppm (Alternaria brassicae) [%],pest or weed control at 500 ppm (Botrytis cinerea [4]) [%]
C[C@H](NC(=O)c1c(Oc2cccc(C(F)(F)F)c2)nnc2ccccc12)c1ccc(Cl)s1 (racemic) [I-080],4.1,90 to 100,90 to 100,90 to 100,90 to 100,,
O=C(NC[C@H](F)c1ccc(Cl)c(Cl)c1)c1c(Oc2cccc(C(F)(F)F)c2)nnc2ccccc12 (racemic) [I-182],4.33,90 to 100,80 to 89,90 to 100,80 to 89,,
C=C(OCC)c1ccc(C(F)(F)CNC(=O)c2c(Oc3cccc(C(F)(F)F)c3)nnc3ccccc23)c(Cl)c1 [I-169],5.16,,80 to 89,90 to 100,90 to 100,90 to 100,
CC1(C)Cc2cc(Cl)c(F)cc2[C@@H](NC(=O)c2c(Oc3cccc(C(F)(F)F)c3)nnc3ccccc23)C1 (racemic) [I-197],4.82,,,90 to 100,90 to 100,,
Cc1cc(C)n(CCNC(=O)c2c(Oc3cccc(C(F)(F)F)c3)nnc3ccccc23)n1 [I-240],2.78,,,90 to 100,80 to 89,,
Cc1ccc(CCNC(=O)c2c(Oc3cccc(C(F)(F)F)c3)nnc3ccccc23)o1 [I-075],3.6,90 to 100,90 to 100,90 to 100,90 to 100,,
Cc1ccc(C(F)(F)CNC(=O)c2c(Oc3cccc(C(F)(F)F)c3)nnc3cc(F)ccc23)c(C)c1 [I-166],4.74,90 to 100,90 to 100,90 to 100,90 to 100,,
O=C(N[C@H]1CCCc2ccc(Cl)cc21)c1c(Oc2cccc(C(F)(F)F)c2)nnc2ccccc12 [I-094],4.44,70 to 79,90 to 100,90 to 100,90 to 100,,
O=C(N[C@H]1CCSc2ccc(F)cc21)c1c(Oc2cccc(C(F)(F)F)c2)nnc2ccccc12 (racemic) [I-095],4.02,70 to 79,80 to 89,90 to 100,90 to 100,,90 to 100
O=C(N[C@H]1CCCc2cc(Br)ccc21)c1c(Oc2cccc(C(F)(F)F)c2)nnc2ccccc12 (racemic) [I-193],4.66,70 to 79,90 to 100,90 to 100,90 to 100,,
Cc1ccc(C(F)CNC(=O)c2c(Oc3cccc(C(F)F)c3)nnc3c2CCCC3)c(C)c1 (centres unmarked) [I-135],3.53,90 to 100,90 to 100,90 to 100,90 to 100,,
CCc1cccc2c1OCC[C@@H]2NC(=O)c1c(Oc2cccc(C(F)(F)F)c2)nnc2ccccc12 (racemic) [I-168],4.45,,90 to 100,90 to 100,90 to 100,,
O=C(C[C@H]1C[C@@]12CCc1cc(Br)ccc12)c1c(Oc2cccc(C(F)(F)F)c2)nnc2ccccc12 (mixture of isomers) [I-097],4.74,80 to 89,90 to 100,90 to 100,90 to 100,,80 to 89
O=C(NCC(F)(F)c1cc(Cl)sc1Cl)c1c(Oc2cccc(C(F)(F)F)c2)nnc2ccccc12 [I-199],4.68,,,90 to 100,80 to 89,,
O=C(NCCc1cccc2[nH]ccc12)c1c(Oc2cccc(C(F)(F)F)c2)nnc2ccccc12 [I-161],,,,90 to 100,90 to 100,,
N#Cc1ccc(C(F)(F)CNC(=O)c2c(Oc3cccc(C(F)(F)F)c3)nnc3ccccc23)c(Cl)c1 [I-098],3.94,80 to 89,,90 to 100,90 to 100,,90 to 100
Cc1ccc2c(c1)[C@@H](NC(=O)c1c(Oc3cccc(C(F)(F)F)c3)nnc3ccccc13)CC(C)(C)O2 (racemic) [I-173],4.44,,,90 to 100,90 to 100,,
O=C(N[C@H]1CCOc2cc(F)ccc21)c1c(Oc2cccc(C(F)(F)F)c2)nnc2ccccc12 [I-178],3.69,,90 to 100,90 to 100,90 to 100,90 to 100,
O=C(NCCOc1ccc(C(F)(F)F)cc1Cl)c1c(Oc2cccc(C(F)(F)F)c2)nnc2ccccc12 [I-203],4.33,,,90 to 100,70 to 79,,
O=C(N[C@H]1CCCc2ccc(Br)cc21)c1c(Oc2cccc(C(F)(F)F)c2)nnc2ccccc12 (racemic) [I-096],4.54,,90 to 100,90 to 100,90 to 100,,
O=C(N[C@H]1CCCc2sc(C3CC3)nc21)c1c(Oc2cccc(C(F)(F)F)c2)nnc2ccccc12 (racemic) [I-091],3.92,70 to 79,80 to 89,90 to 100,90 to 100,,
O=C(N[C@H]1CCS(=O)(=O)c2ccccc21)c1c(Oc2cccc(C(F)(F)F)c2)nnc2ccccc12 [I-174],2.98,,80 to 89,80 to 89,90 to 100,,
O=C(NCCc1ccc2[nH]ccc2c1)c1c(Oc2cccc(C(F)(F)F)c2)nnc2ccccc12 [I-249],3.3,,,90 to 100,90 to 100,,
Cc1cnn(CCNC(=O)c2c(Oc3cccc(C(F)(F)F)c3)nnc3ccccc23)c1 [I-076],2.74,,90 to 100,90 to 100,90 to 100,80 to 89,
